What is called Ki is the equilibrium dissociation constant of an inhibitor or competing ligand from its target.

Where two headings read alike, the source gives them in different places.

For test [1], the target named is human GABAA α1β3γ2 receptor (Homo sapiens (Human), UniProt P14867+P18507). In words: Radioligand binding assay, competition for [3H]Flumazenil, γ2-containing GABAA subtype α1β3γ2.
In test [2] the target is human GABAA α5β2γ1 receptor (Homo sapiens (Human), UniProt P31644+Q8N1C3). In words: Radioligand binding assay, competition for [3H]RO7239181, γ1-containing GABAA subtype α5β2γ1.
Test [3] has as its target human GABAA α2β2γ1 receptor (Homo sapiens (Human), UniProt P47869+Q8N1C3). Briefly: Radioligand binding assay, competition for [3H]RO7239181, γ1-containing GABAA subtype α2β2γ1. The following applies: for γ2/γ1 Selectivity Ratio: Ki α1β3γ2 (nM)/Ki α2β2γ1 (nM); for LogSel: Log[Ki α1β3γ2 (nM)/Ki α2β2γ1 (nM)].
Setting [4] is: HEK293F cell membranes, [3H]Flumazenil 1 nM, mean of two determinations, read-out: Ki h-GABAA α1β3γ2.
Where [5] appears, read: membranes of HEK293F cells, [3H]RO7239181 1.5 nM, mean of two determinations, read-out: Ki h-GABAA α5β2γ1.
[6] abbreviates: Table 2, membranes of HEK293F cells, [3H]RO7239181, read-out: Ki h-GABAA α2β2γ1.
Setting [7] is: membranes of HEK293F cells, [3H]RO7239181 20-30 nM, mean of two determinations, read-out: Ki h-GABAA α2β2γ1.
Where [8] appears, read: read-out: Ki h-GABAA α2β2γ1, Table 2, membranes of HEK293F cells, [3H]RO7239181.

With `CCOCCc1cn2c(nc1=O)[C@H](C)N=C(c1c(F)cccc1F)c1c-2ccc(Cl)c1Cl` [Example 21, (5S)-8,9-dichloro-7-(2,6-difluorophenyl)-2-(2-ethoxyethyl)-5-methyl-5H-pyrimido[1,2-a][1,4]benzodiazepin-3-one], the Ki in test [1] (setting [4]) is 1440 nM; in test [2] (setting [5]), 3.4 nM; in test [3] (setting [6]) it was 23.3 nM; in test [3] (setting [7]) it was 23.3 nM. In addition, the “γ2/γ1 Selectivity Ratio” value in test [3] worked out at 61.6. In addition, the LogSel in test [3] turned out to be 1.79.
For `C[C@@H]1N=C(c2c(F)cccc2F)c2c(ccc(Cl)c2Cl)-n2ccc(=O)nc21` [Example 4, (5S)-8,9-dichloro-7-(2,6-difluorophenyl)-5-methyl-5H-pyrimido[1,2-a][1,4]benzodiazepin-3-one], the Ki in test [1] is 912 nM; in test [2], 1.5 nM; in test [3], 13.3 nM; in test [3] (setting [8]), 13.3 nM. In test [3], the “γ2/γ1 Selectivity Ratio” value amounted to 68.7. In test [3], this molecule had a LogSel of 1.84.
`CCO/C=C/c1cn2c(nc1=O)[C@H](C)N=C(c1c(F)cccc1F)c1c-2ccc(C(F)(F)F)c1Cl` [Example 18, (5S)-8-chloro-7-(2,6-difluorophenyl)-2-[(E)-2-ethoxyvinyl]-5-methyl-9-(trifluoromethyl)-5H-pyrimido[1,2-a][1,4]benzodiazepin-3-one]: the inhibitory constant (Ki) was 6340 nM in test [1] (setting [4]), 9.7 nM in test [2] (setting [5]), 60.6 nM in test [3] (setting [6]) and 60.6 nM in test [3] (setting [7]). Besides, the “γ2/γ1 Selectivity Ratio” value in test [3] is reported as 104.6. In test [3], this molecule registered a LogSel of 2.02.
With `O=c1ccn2c(n1)CN=C(c1ncccc1F)c1c-2ccc(Cl)c1Cl` [Example 3, 8,9-dichloro-7-(3-fluoro-2-pyridyl)-5H-pyrimido[1,2-a][1,4]benzodiazepin-3-one], the Ki was 2190 nM in test [1], 10.3 nM in test [2], 112 nM in test [3] and 112 nM in test [3] (setting [8]). Besides, the “γ2/γ1 Selectivity Ratio” value in test [3] was 19.6. Besides, the LogSel in test [3] stood at 1.29.
`CCOCCc1cn2c(nc1=O)[C@H](C)N=C(c1c(F)cccc1F)c1c-2ccc(C(F)(F)F)c1Cl` [Example 20, (5S)-8-chloro-7-(2,6-difluorophenyl)-2-(2-ethoxyethyl)-5-methyl-9-(trifluoromethyl)-5H-pyrimido[1,2-a][1,4]benzodiazepin-3-one]: the Ki in test [1] (setting [4]) came out at 8880 nM; in test [2] (setting [5]), 6.6 nM; in test [3] (setting [6]) it was 101 nM; in test [3] (setting [7]), 101 nM. Moreover, the “γ2/γ1 Selectivity Ratio” value in test [3] is 88.1. In addition, the LogSel in test [3] is 1.95.
For the molecule `CCOCCc1cn2c(nc1=O)CN=C(c1c(F)cccc1F)c1c-2ccc(C(F)(F)F)c1Cl` [Example 26, 8-chloro-7-(2,6-difluorophenyl)-2-(2-ethoxyethyl)-9-(trifluoromethyl)-5H-pyrimido[1,2-a][1,4]benzodiazepin-3-one], the inhibition constant (Ki) in test [1] (setting [4]) is above 30000 nM; in test [2] (setting [5]) it was 21.6 nM; in test [3] (setting [6]), 75 nM; in test [3] (setting [7]) it was 75 nM. The “γ2/γ1 Selectivity Ratio” value in test [3] stood at 400.1. Besides, the LogSel in test [3] is 2.60.
For the molecule `C[C@@H]1N=C(c2c(F)cccc2F)c2c(ccc(C(F)(F)F)c2Cl)-n2ccc(=O)nc21` [Example 10, (5S)-8-chloro-7-(2,6-difluorophenyl)-5-methyl-9-(trifluoromethyl)-5H-pyrimido[1,2-a][1,4]benzodiazepin-3-one], the inhibition constant (Ki) in test [1] amounted to 6120 nM; in test [2] it was 3 nM; in test [3], 54.6 nM; in test [3] (setting [8]) it was 54.6 nM. Further, the “γ2/γ1 Selectivity Ratio” value in test [3] turned out to be 112.1. The same molecule had a LogSel in test [3] of 2.05.

For the origin of these results see patent publication US20240287082A1, “NEW BENZODIAZEPINE DERIVATIVES AS GABA A GAMMA1 PAM” (Hoffmann-La Roche Inc., priority 2021, published 2024).
